# From US20140271734A1, “BILE ACID RECYCLING INHIBITORS FOR TREATMENT OF BARRETT'S ESOPHAGUS AND GASTROESOPHAGEAL REFLUX DISEASE” (LUMENA PHARMACEUTICALS, INC., priority 2013, published 2014)
# Tests used:
# GLP-2 = GLP-2 in plasma of non-fasted ZDF rats, 2 weeks treatment; assay type: in vivo
# [1] = Pharmacokinetics of LUM002 100 mg single oral dose in humans; assay type: in vivo, human
# Experimental: Healthy male subjects, from 18 to 45 years of age, were given a single oral solution dose (100 mg in 100 mL) of LUM002 under fasting conditions. Blood samples for the determination of LUM002 plasma concentration were collected predose and 0.5, 1, 2, 3, 4, 5, 6, 8, 10, 12, 16, 24, and 48 hours after treatment administration. Plasma was obtained by centrifugation and […] processed for protein precipitation, centrifuged again to remove the precipitate and the supernatant prepared for LC-MSMS analysis. LUM002 plasma concentrations were determined using a validated liquid chromatography tandem mass spectrometry (LC-MSMS) assay with a lower limit of quantification (LLOQ) of 0.1 ng/mL. LUM002 plasma concentrations were used to determine the following pharmacokinetic parameters using standard noncompartmental techniques: Cmax, Tmax, AUClast, and, if applicable due to the low-absorbable characteristics of LUM002, also AUC, AUC0-24 and t1/2.
# plasma bile acid = test: Plasma bile acid concentrations in ZDF rats; assay type: in vivo; details: SC-435 1, 10 or 30 mg/kg; LUM002 0.3, 1, 3, 10 or 30 mg/kg; oral gavage twice a day, end of second week, n=4
# Experimental: Male Zucker diabetic fatty rats (ZDF/GmiCrl-fa/fa) were purchased from Charles River (Raleigh, N.C.) and housed under controlled conditions (12:12 light-dark cycle, 24° C. and 50% relative humidity) with free access to rodent food (Purina 5008, Harlan Teklad, Indianapolis, Ind.). All rats arrived at seven weeks of age (±3 days). After a one-week acclimation period, rats were anesthetized with isoflurane (Abbott Laboratories, IL) and tail-vein blood samples were collected at 9 am without fasting. Blood glucose levels were measured using a glucometer (Bayer, Leverkusen, Germany). In order to ensure balanced treatment groups, ZDF rats were assigned to six treatment groups based upon baseline glucose: vehicle (0.5% HPMC, 0.1% Tween80) and five doses of 264W94 (0.001, 0.01, 0.1, 1, 10 mg/kg). All treatments were given via oral gavage twice a day and animals were followed for two weeks with blood samples collected from tail vein at the end of each week at 9 am without fasting. Fecal samples were collected for 24 hours during the second week of treatment.
# Non-esterified fatty acids (NEFA), bile acids, and bile acids in fecal extraction were measured using the Olympus AU640 clinical chemistry analyzer (Beckman Coulter, Irving, Tex.).
# Male ZDF rats (n=4) were administered vehicle, SC-435 (1, 10 or 30 mg/kg) or LUM002 (0.3, 1, 3, 10 or 30 mg/kg) by oral gavage twice a day for 2 weeks. Plasma bile acid levels were determined at the end of the second week. […] Data are expressed as mean values±SEM.
# [2] = 100 mg single oral dose, Geometric Mean, N=6
# [3] = 100 mg single oral dose, Median, N=6
# [4] = 100 mg single oral dose, Subject 250001149
# [5] = 100 mg single oral dose, Subject 250001150
# [6] = 100 mg single oral dose, Subject 250001151
# [7] = 100 mg single oral dose, Subject 250001154
# [8] = 100 mg single oral dose, Subject 250001155
# [9] = 100 mg single oral dose, Subject 750001156
# [10] = 100 mg single oral dose, mean, N=6
compound,measurement,setting,value
"CCCC[C@]1(CC)CS(=O)(=O)c2ccc(N(C)C)cc2[C@@H](c2cccc(NC(=O)N[C@@H]3O[C@H](COS(=O)(=O)[O-])[C@@H](O)[C@H](OCc4ccccc4)[C@H]3O)c2)[C@H]1O.CCO.O.[K+] [LUM002, potassium((2R,3R,4S,5R,6R)-4-benzyloxy-6-{3-[3-((3S,4R,5R)-3-butyl-7-dimethylamino-3-ethyl-4-hydroxy-1,1-dioxo-2,3,4,5-tetrahydro-1H-benzo[b]thiepin-5-yl)-phenyl]-ureido}-3,5-dihydroxy-tetrahydro-pyran-2-ylmethyl)sulphate ethanolate, hydrate]",GLP-2 in plasma,GLP-2,significant elevations in GLP2 at higher doses
same,AUClast,[1]; [2],0.187 ng·h/mL
same,Cmax,[1]; [2],0.197 ng/mL
same,Tmax,[1]; [2],3.22 h
same,tlast,[1]; [2],4.93 h
same,AUClast,[1]; [3],0.148 ng·h/mL
same,Cmax,[1]; [3],0.216 ng/mL
same,Tmax,[1]; [3],5.00 h
same,tlag,[1]; [3],1.00 h
same,tlast,[1]; [3],5.00 h
same,AUC0-24,[1]; [4],1.92 ng·h/mL
same,AUCExt,[1]; [4],39%
same,AUClast,[1]; [4],1.19 ng·h/mL
same,Cmax,[1]; [4],0.300 ng/mL
same,Tmax,[1]; [4],5.00 h
same,t1/2z,[1]; [4],3.39 h
same,tlag,[1]; [4],0.00 h
same,tlast,[1]; [4],8.00 h
same,AUClast,[1]; [5],0.0815 ng·h/mL
same,Cmax,[1]; [5],0.163 ng/mL
same,Tmax,[1]; [5],5.00 h
same,tlag,[1]; [5],4.00 h
same,tlast,[1]; [5],5.00 h
same,AUClast,[1]; [6],0.0645 ng·h/mL
same,Cmax,[1]; [6],0.129 ng/mL
same,Tmax,[1]; [6],3.00 h
same,tlag,[1]; [6],2.00 h
same,tlast,[1]; [6],3.00 h
same,AUClast,[1]; [7],0.215 ng·h/mL
same,Cmax,[1]; [7],0.269 ng/mL
same,Tmax,[1]; [7],6.00 h
same,tlag,[1]; [7],0.00 h
same,tlast,[1]; [7],6.00 h
same,AUClast,[1]; [8],0.522 ng·h/mL
same,Cmax,[1]; [8],0.286 ng/mL
same,Tmax,[1]; [8],0.50 h
same,tlag,[1]; [8],0.00 h
same,tlast,[1]; [8],4.00 h
same,AUClast,[1]; [9],0.0600 ng·h/mL
same,Cmax,[1]; [9],0.120 ng/mL
same,Tmax,[1]; [9],5.00 h
same,tlag,[1]; [9],4.00 h
same,tlast,[1]; [9],5.00 h
same,AUClast,[1]; [10],0.355 ng·h/mL
same,Cmax,[1]; [10],0.211 ng/mL
same,Tmax,[1]; [10],4.08 h
same,tlag,[1]; [10],1.67 h
same,tlast,[1]; [10],5.17 h
same,LUM002 dose systemically absorbed,"[1]; healthy male subjects, single oral solution 100 mg, fasting",Less than 1%
same,Plasma bile acid levels,plasma bile acid,decreased for all doses
